According to PubChem BioAssay (NCI):
“And” between values parts separate entries of the source, which are not always exact repeats. Equal entries are not always repeated.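 The compound was tested at five concentrations on cells cultured in 96-well plates, with a 48-hour exposure period. GI50 marks 50% less growth. At the TGI there is no net growth.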

Columns and labels:
Assay in all cases: growth of human tumour cells (NCI), 48 h
ACHN renal = test system: ACHN renal
M14 melanoma = test system: M14 melanoma
MCF7 breast = test system: MCF7 breast
OVCAR-3 ovarian = test system: OVCAR-3 ovarian
RXF 393 renal = test system: RXF 393 renal
SN12C renal = test system: SN12C renal
SNB-19 CNS = test system: SNB-19 CNS
T-47D breast = test system: T-47D breast
U251 CNS = test system: U251 CNS
UACC-257 melanoma = test system: UACC-257 melanoma

| Compound | GI50 (ACHN renal) | TGI (ACHN renal) | GI50 (M14 melanoma) | TGI (M14 melanoma) | GI50 (MCF7 breast) | TGI (MCF7 breast) | GI50 (OVCAR-3 ovarian) | TGI (OVCAR-3 ovarian) | GI50 (RXF 393 renal) | TGI (RXF 393 renal) | GI50 (SN12C renal) | TGI (SN12C renal) | GI50 (SNB-19 CNS) | TGI (SNB-19 CNS) | GI50 (T-47D breast) | TGI (T-47D breast) | GI50 (U251 CNS) | TGI (U251 CNS) | GI50 (UACC-257 melanoma) | TGI (UACC-257 melanoma) |
| --- | --- | --- | --- | --- | --- | --- | --- | --- | --- | --- | --- | --- | --- | --- | --- | --- | --- | --- | --- | --- |
| Cc1cc2c(F)c(Oc3ncnn4cc(OC[C@@H](C)OC(=O)[C@H](C)N)c(C)c34)ccc2[nH]1 | 8.85 µM | 21.5 µM | 12.3 µM | 25.7 µM | 8.58 µM | 24 µM | 10.7 µM | 23.7 µM | 8.4 µM | 22.5 µM | 12.6 µM | 26.2 µM | 9.99 µM | 23 µM | 13.4 µM | 31.7 µM | 4.22 µM | 18.5 µM | 14.6 µM | 28.1 µM |
| C[N+](C)(CCCCCC[N+](C)(C)CCCN1C(=O)c2cc3ccccc3cc2C1=O)CCCN1C(=O)c2ccccc2C1=O | > 37.5 µM | > 37.5 µM | > 37.5 µM | > 37.5 µM | > 37.5 µM | > 37.5 µM | > 37.5 µM | > 37.5 µM | > 37.5 µM | > 37.5 µM | > 37.5 µM | > 37.5 µM | > 37.5 µM | > 37.5 µM | > 37.5 µM | > 37.5 µM | > 37.5 µM | > 37.5 µM | > 37.5 µM | > 37.5 µM |
| COC(=O)Nc1nc2ccccc2c(=O)[nH]1 | – | > 100 µM | – | > 100 µM | – | > 100 µM | – | > 100 µM | – | > 100 µM | – | > 100 µM | – | > 100 µM | – | > 100 µM | – | > 100 µM | – | > 100 µM |
| O=c1cc(-c2ccccc2)nc2n1CCN2Cc1ccccc1 | 25 µM | 76.7 µM | 37.9 µM | > 100 µM | 41.9 µM | > 100 µM | 27.3 µM | 99.6 µM | 46.2 µM | > 100 µM | 32.2 µM | > 100 µM | 80.9 µM | > 100 µM | 65 µM | > 100 µM | 30.5 µM | > 100 µM | 37.1 µM | > 100 µM |
| CCOC(=O)Oc1c(OC)cc(C(=O)O[C@@H]2C[C@@H]3CN4CCc5c([nH]c6cc(OC)ccc56)[C@H]4C[C@@H]3[C@H](C(=O)OC)[C@H]2OC)cc1OC | 4.16 µM | 21.7 µM | 4.44 µM | 18.9 µM | 4.13 µM | 17.3 µM | 4.62 µM | 16.1 µM | 5.03 µM | 19.1 µM | 4.34 µM | 17.7 µM | 5.04 µM | 20.9 µM | 2.97 µM | 20.1 µM | 4.24 µM | 15.1 µM | 12.4 µM | 30.4 µM |
| N=C(N)CCCCCCCCC(=N)N | > 100 µM | > 100 µM | 56.7 µM | > 100 µM | 25.7 µM | > 100 µM | 34.1 µM | > 100 µM | > 100 µM | > 100 µM | 25.7 µM | > 100 µM | 22.5 µM | > 100 µM | 25 µM | > 100 µM | 8.08 µM | > 100 µM | > 100 µM | > 100 µM |
| O=C(C(Br)Br)C(Br)C(Br)c1ccccc1 (stereo not drawn) | 1.68 µM | 3.18 µM | 2.5 µM | 6.33 µM | 3.58 µM | 13.4 µM | 2.72 µM | 6.44 µM | 1.7 µM | 3.45 µM | 12.7 µM | 33.2 µM | 17.4 µM | 35.2 µM | 2.75 µM | 9.69 µM | 2.96 µM | 10.8 µM | 2.39 µM | 7.24 µM |
| CC1=Cc2cc3[n-]c(cc4nc(cc5[n-]c(cc1n2)cc5C)C(C)=C4CCC(=O)O)c(CCC(=O)O)c3C.[Pd+2] | 6.31 µM | 16.6 µM | 12.7 µM | 31.1 µM | > 100 µM | > 100 µM | 7.51 µM | 27.1 µM | 17.9 µM | > 37.9 µM | 9.17 µM | 17.9 µM | 9.52 µM | 34.1 µM | > 100 µM | > 100 µM | 2.56 µM | 8.24 µM | 10.8 µM | 29.3 µM |
| C=C1C(=O)O[C@H]2[C@H]1CC/C(Cn1cc(-c3ccccc3)nn1)=C\CC[C@@]1(C)O[C@@H]21 | 0.941 µM | 2.46 µM | 1.78 µM | 7.6 µM | 1.08 µM | 3.32 µM | 1.4 µM | 4.38 µM | 1.55 µM | 4.22 µM | 4.5 µM | 11.5 µM | 7.87 µM | 17 µM | 1.3 µM | 3.94 µM | 7.96 µM | 15.4 µM | 3.78 µM | 10.5 µM |
| O=C1c2ccccc2-c2c1c1ccccc1c(=O)n2CCNCCNCCn1c2c(c3ccccc3c1=O)C(=O)c1ccccc1-2 | 0.0217 µM | 17 µM | 2.58 µM | 33.4 µM | 0.109 µM | 1.06 µM | 1.02 µM | 8.98 µM | 0.114 µM | 10.3 µM | 0.13 µM | 14.1 µM | 1.14 µM | 20.5 µM | 18.1 µM | 41.5 µM | 0.0382 µM | 1.59 µM | 11.3 µM | > 48.4 µM |
| C[C@H]1CCC/C=C/[C@@H]2C[C@H](O)C[C@H]2[C@H](O)[C@@H](S(=O)CCN(C)C)CC(=O)O1 (stereo partly drawn) | 0.428 µM | – | 0.111 µM | > 59.3 µM | 0.147 µM | – | 0.115 µM | – | 0.0542 µM | > 100 µM | 0.256 µM | – | – | > 100 µM | 0.338 µM | – | 0.498 µM | > 100 µM | 0.0904 µM | > 100 µM |
| Cc1[nH]c(/C=C2\C(=O)Nc3ccc(F)cc32)c(C)c1C(=O)NC[C@H](O)CN1CCOCC1 | 3.49 µM | > 10 µM | 0.943 µM | > 10 µM | 3.11 µM | > 10 µM | > 10 µM | > 10 µM | 2.33 µM | > 10 µM | 3.05 µM | > 10 µM | > 10 µM | > 10 µM | > 10 µM | > 10 µM | 6.65 µM | > 10 µM | 8.67 µM | > 10 µM |
| C/C=C(\C)C(=O)O[C@H]1C=CC(=O)O[C@H]1CNC(=O)[C@H](C)O | 15.7 µM | 29.9 µM | 18.6 µM | 41 µM | 19.7 µM | 42.3 µM | 17 µM | 30.9 µM | 19.3 µM | 40.1 µM | 18.9 µM | 40.3 µM | 30.5 µM | > 100 µM | 20 µM | 73.9 µM | 15.7 µM | 29.9 µM | 17.1 µM | 37.6 µM |
| COc1c(O)ccc2c1CN1CCc3cc4c(cc3C1C2)OCO4 (stereo not drawn) | – | > 79 µM | – | > 100 µM | – | > 63.1 µM | – | > 83.2 µM | – | 50.6 µM | – | > 84.4 µM | – | > 100 µM | – | > 73.9 µM | – | > 100 µM | – | > 77.2 µM |
| O=C1CCC2(C=C(Br)C(=O)C(Br)=C2)O1 | 1.78 µM | 3.19 µM | 11.8 µM | 24.7 µM | 3.57 µM | 15.7 µM | 1.65 µM | 3.02 µM | 2.82 µM | 6.96 µM | 16.3 µM | 35.3 µM | 18.5 µM | 35.6 µM | 2.22 µM | 5.04 µM | 14.7 µM | 28.9 µM | 3.52 µM | 9.28 µM |
| CCN(CC)CCCCCCCNc1c2ccc(Cl)cc2nc2ccc(OC)cc12 | 0.829 µM | 4.93 µM | 1.34 µM | 2.77 µM | 0.356 µM | 1.59 µM | 1.55 µM | 3.69 µM | 0.84 µM | 2.35 µM | 1.22 µM | 5.36 µM | 1.75 µM | 5.84 µM | 2.24 µM | 4.97 µM | 0.706 µM | 1.93 µM | 1.27 µM | 3.08 µM |
| Cc1ccc2c(=O)c3cccc(CC(=O)O)c3oc2c1C | > 100 µM | > 100 µM | > 100 µM | > 100 µM | > 100 µM | > 100 µM | > 100 µM | > 100 µM | > 100 µM | > 100 µM | > 100 µM | > 100 µM | > 100 µM | > 100 µM | > 100 µM | > 100 µM | > 100 µM | > 100 µM | > 100 µM | > 100 µM |
| COc1ccc(-c2cn[nH]c2-c2cc(OC)c(OC)c(OC)c2)cc1N | < 0.01 µM and 0.044 µM | > 100 µM | < 0.01 µM and 0.0247 µM | > 100 µM | < 0.01 µM and 0.0266 µM | > 100 µM | < 0.01 µM and 0.0281 µM | – | 0.0247 µM | > 100 µM | < 0.01 µM and 0.0802 µM | > 100 µM | < 0.01 µM and 0.0484 µM | > 100 µM | 17.1 µM and 25 µM | 77.4 µM and > 100 µM | < 0.01 µM and 0.0404 µM | > 100 µM | 28.4 µM | > 100 µM |
| CC(=O)N1c2ccccc2Sc2cc(C(O)(C(F)(F)F)C(F)(F)F)ccc21 | – | > 10 µM | – | > 10 µM | – | > 10 µM | – | > 10 µM | – | > 10 µM | – | > 10 µM | – | > 10 µM | – | > 10 µM | – | > 10 µM | – | > 10 µM |
| O=C(NOCC1CC1)c1ccc(F)c(F)c1Nc1ccc(I)cc1Cl | 1.13 µM | > 39 µM | 0.0546 µM | 0.505 µM | 3.11 µM | 19.1 µM | 2.62 µM | 7.54 µM | 2.11 µM | 8.95 µM | 1.63 µM | > 100 µM | 1.38 µM | 97.3 µM | 3.15 µM | > 52.3 µM | 1.55 µM | 12.2 µM | 0.0549 µM | 0.517 µM |
